Test results taken from US12227485B2, “Compounds useful for the treatment of infection with Mannheimia haemolytica or Histophilus somni” (Intervet Inc., priority 2018, dated 2025).
Converted amounts (≈) assume the structure as drawn.

Assays:
Mannheimia haemolytica = assay: MIC by broth-microdilution method (CLSI VET01-A4), Mannheimia haemolytica strains; assay type: cell-based; settings: for MIC MH 6357: Mannheimia haemolytica MH 6357 (M7/2), reference strain (cattle infection strain); for MIC MH 6374: Mannheimia haemolytica MH 6374 (ATCC 33396), reference strain; for MIC MH 10720: Mannheimia haemolytica MH 10720 (154); for MIC MH 10720 / MIC MH 12587 / MIC MH 13093: BRD field isolate; for MIC MH 12587: Mannheimia haemolytica MH 12587 (1071), macrolide-resistance: erm+, E+; for MIC MH 13093: Mannheimia haemolytica MH 13093 (XB0472-6014.1)
Experimental: (§1) For example, representative compounds were tested against Mannheimia haemolytica and Pasteurella multocida, using the conventional broth-dilution assay.
(§2) The Minimum inhibitory concentrations (MIC) of compounds according to the invention for a number of veterinary bacterial pathogens were determined by the broth-microdilution method according to CLSI document VET01-A4.
(§3) Microdilution trays containing a doubling dilution series of the test compound were used for the tests. The MIC results were interpreted according to the CLSI documents VET01-S3. The lowest concentration of compound at which no visible growth (i.e. no turbidity) detected by the unaided eye was recorded as the MIC.

Pasteurella multocida = assay: MIC by broth-microdilution method (CLSI VET01-A4), Pasteurella multocida strains; assay type: cell-based; settings: for MIC PM 6267: Pasteurella multocida PM 6267 (P 2225 (L386)), reference strain (mouse infection strain); for MIC PM 6391: Pasteurella multocida PM 6391 (ATCC 43137), reference strain; for MIC PM 10775: Pasteurella multocida PM 10775 (080130003051); for MIC PM 10775 / MIC PM 12080: BRD field isolate; for MIC PM 12080: Pasteurella multocida PM 12080 (IV102277-0093)
Experimental: as §1, §2, §3

Compound: COCCNCc1ccc(C#Cc2ccc3c(NC(C(=O)NO)C(C)(C)N)ncnc3c2)cc1 (racemic) [Compound 18]
- MIC MH 6357 (Mannheimia haemolytica): 25 µM (≈ 11.6 µg/mL)
- MIC MH 6374 (Mannheimia haemolytica): 25 µM (≈ 11.6 µg/mL)
- MIC MH 10720 (Mannheimia haemolytica): 6.3 µM (≈ 2.91 µg/mL)
- MIC MH 12587 (Mannheimia haemolytica): 50 µM (≈ 23.1 µg/mL)
- MIC MH 13093 (Mannheimia haemolytica): 25 µM (≈ 11.6 µg/mL)
- MIC PM 6267 (Pasteurella multocida): 3.1 µM (≈ 1.43 µg/mL)
- MIC PM 6391 (Pasteurella multocida): 6.3 µM (≈ 2.91 µg/mL)
- MIC PM 10775 (Pasteurella multocida): 0.8 µM (≈ 0.37 µg/mL)
- MIC PM 12080 (Pasteurella multocida): 12.5 µM (≈ 5.78 µg/mL)

Compound: C[C@@H](O)[C@H](Nc1ncnc2cc(C#Cc3ccc(CN4CCOCC4)cc3)ccc12)C(=O)NO [Compound 1]
- MIC MH 6357 (Mannheimia haemolytica): 1.6 µM (≈ 0.738 µg/mL)
- MIC MH 6374 (Mannheimia haemolytica): 3.1 µM (≈ 1.43 µg/mL)
- MIC MH 10720 (Mannheimia haemolytica): 0.2 µM (≈ 0.0923 µg/mL)
- MIC MH 12587 (Mannheimia haemolytica): 3.1 µM (≈ 1.43 µg/mL)
- MIC MH 13093 (Mannheimia haemolytica): 3.1 µM (≈ 1.43 µg/mL)
- MIC PM 6267 (Pasteurella multocida): 1.6 µM (≈ 0.738 µg/mL)
- MIC PM 6391 (Pasteurella multocida): 0.2 µM (≈ 0.0923 µg/mL)
- MIC PM 10775 (Pasteurella multocida): ≤0.1 µM
- MIC PM 12080 (Pasteurella multocida): ≤0.1 µM

Compound: C[C@@H](O)[C@H](Nc1ncnc2cc(C#Cc3ccc(CNC4CC4)cc3)ccc12)C(=O)NO [Compound 2]
- MIC MH 6357 (Mannheimia haemolytica): 0.8 µM (≈ 0.345 µg/mL)
- MIC MH 6374 (Mannheimia haemolytica): 1.6 µM (≈ 0.69 µg/mL)
- MIC MH 10720 (Mannheimia haemolytica): ≤0.1 µM
- MIC MH 12587 (Mannheimia haemolytica): 3.1 µM (≈ 1.34 µg/mL)
- MIC MH 13093 (Mannheimia haemolytica): 3.1 µM (≈ 1.34 µg/mL)
- MIC PM 6267 (Pasteurella multocida): 1.6 µM (≈ 0.69 µg/mL)
- MIC PM 6391 (Pasteurella multocida): 0.2 µM (≈ 0.0863 µg/mL)
- MIC PM 10775 (Pasteurella multocida): ≤0.1 µM
- MIC PM 12080 (Pasteurella multocida): ≤0.1 µM

Compound: COCCNCc1ccc(C#Cc2ccc3c(N[C@H](C(=O)NO)[C@@H](C)O)ncnc3c2)cc1 [Compound 3]
- MIC MH 6357 (Mannheimia haemolytica): 6.3 µM (≈ 2.83 µg/mL)
- MIC MH 6374 (Mannheimia haemolytica): 6.3 µM (≈ 2.83 µg/mL)
- MIC MH 10720 (Mannheimia haemolytica): 6.3 µM (≈ 2.83 µg/mL)
- MIC MH 12587 (Mannheimia haemolytica): 12.5 µM (≈ 5.62 µg/mL)
- MIC MH 13093 (Mannheimia haemolytica): 6.3 µM (≈ 2.83 µg/mL)
- MIC PM 6267 (Pasteurella multocida): 0.2 µM (≈ 0.0899 µg/mL)
- MIC PM 6391 (Pasteurella multocida): 0.4 µM (≈ 0.18 µg/mL)
- MIC PM 10775 (Pasteurella multocida): ≤0.1 µM
- MIC PM 12080 (Pasteurella multocida): 3.1 µM (≈ 1.39 µg/mL)

Compound: C=CCNCc1ccc(C#Cc2ccc3c(N[C@H](C(=O)NO)[C@@H](C)O)ncnc3c2)cc1 [Compound 4]
- MIC MH 6357 (Mannheimia haemolytica): 1.6 µM (≈ 0.69 µg/mL)
- MIC MH 6374 (Mannheimia haemolytica): 3.1 µM (≈ 1.34 µg/mL)
- MIC MH 10720 (Mannheimia haemolytica): 1.6 µM (≈ 0.69 µg/mL)
- MIC MH 12587 (Mannheimia haemolytica): 6.3 µM (≈ 2.72 µg/mL)
- MIC MH 13093 (Mannheimia haemolytica): 3.1 µM (≈ 1.34 µg/mL)
- MIC PM 6267 (Pasteurella multocida): 0.2 µM (≈ 0.0863 µg/mL)
- MIC PM 6391 (Pasteurella multocida): 0.4 µM (≈ 0.173 µg/mL)
- MIC PM 10775 (Pasteurella multocida): ≤0.1 µM
- MIC PM 12080 (Pasteurella multocida): 1.6 µM (≈ 0.69 µg/mL)

Compound: C[C@@H](O)[C@H](Nc1ncnc2cc(C#Cc3ccc(CNCc4ccccc4)cc3)ccc12)C(=O)NO [Compound 5]
- MIC MH 6357 (Mannheimia haemolytica): 0.8 µM (≈ 0.385 µg/mL)
- MIC MH 6374 (Mannheimia haemolytica): 0.8 µM (≈ 0.385 µg/mL)
- MIC MH 10720 (Mannheimia haemolytica): 0.8 µM (≈ 0.385 µg/mL)
- MIC MH 12587 (Mannheimia haemolytica): 3.1 µM (≈ 1.49 µg/mL)
- MIC MH 13093 (Mannheimia haemolytica): 1.6 µM (≈ 0.77 µg/mL)
- MIC PM 6267 (Pasteurella multocida): ≤0.1 µM
- MIC PM 6391 (Pasteurella multocida): 0.2 µM (≈ 0.0963 µg/mL)
- MIC PM 10775 (Pasteurella multocida): ≤0.1 µM
- MIC PM 12080 (Pasteurella multocida): 0.8 µM (≈ 0.385 µg/mL)

Compound: C[C@@H](O)[C@H](Nc1ncnc2cc(C#Cc3ccc(CNCC(F)(F)F)cc3)ccc12)C(=O)NO [Compound 6]
- MIC MH 6357 (Mannheimia haemolytica): 0.8 µM (≈ 0.379 µg/mL)
- MIC MH 6374 (Mannheimia haemolytica): 0.8 µM (≈ 0.379 µg/mL)
- MIC MH 10720 (Mannheimia haemolytica): 0.4 µM (≈ 0.189 µg/mL)
- MIC MH 12587 (Mannheimia haemolytica): 1.6 µM (≈ 0.758 µg/mL)
- MIC MH 13093 (Mannheimia haemolytica): 0.8 µM (≈ 0.379 µg/mL)
- MIC PM 6267 (Pasteurella multocida): ≤0.1 µM
- MIC PM 6391 (Pasteurella multocida): ≤0.1 µM
- MIC PM 10775 (Pasteurella multocida): ≤0.1 µM
- MIC PM 12080 (Pasteurella multocida): 0.4 µM (≈ 0.189 µg/mL)

Compound: C[C@@H](O)[C@H](Nc1nsc2cc(C#Cc3ccc(CNC4CC4)cc3)ccc12)C(=O)NO [Compound 10]
- MIC MH 6357 (Mannheimia haemolytica): 0.2 µM (≈ 0.0873 µg/mL)
- MIC MH 6374 (Mannheimia haemolytica): 0.4 µM (≈ 0.175 µg/mL)
- MIC MH 10720 (Mannheimia haemolytica): ≤0.1 µM
- MIC MH 12587 (Mannheimia haemolytica): 0.8 µM (≈ 0.349 µg/mL)
- MIC MH 13093 (Mannheimia haemolytica): 0.4 µM (≈ 0.175 µg/mL)
- MIC PM 6267 (Pasteurella multocida): ≤0.1 µM
- MIC PM 6391 (Pasteurella multocida): >100 µM
- MIC PM 10775 (Pasteurella multocida): ≤0.1 µM
- MIC PM 12080 (Pasteurella multocida): ≤0.1 µM

Compound: C=CCNCc1ccc(C#Cc2ccc3c(N[C@H](C(=O)NO)[C@@H](C)O)nsc3c2)cc1 [Compound 11]
- MIC MH 6357 (Mannheimia haemolytica): 0.4 µM (≈ 0.175 µg/mL)
- MIC MH 6374 (Mannheimia haemolytica): 0.4 µM (≈ 0.175 µg/mL)
- MIC MH 10720 (Mannheimia haemolytica): ≤0.1 µM
- MIC MH 12587 (Mannheimia haemolytica): 1.6 µM (≈ 0.698 µg/mL)
- MIC MH 13093 (Mannheimia haemolytica): 0.8 µM (≈ 0.349 µg/mL)
- MIC PM 6267 (Pasteurella multocida): ≤0.1 µM
- MIC PM 6391 (Pasteurella multocida): 0.2 µM (≈ 0.0873 µg/mL)
- MIC PM 10775 (Pasteurella multocida): ≤0.1 µM
- MIC PM 12080 (Pasteurella multocida): 0.4 µM (≈ 0.175 µg/mL)

Compound: COCCNCc1ccc(C#Cc2ccc3c(N[C@H](C(=O)NO)[C@@H](C)O)nsc3c2)cc1 [Compound 12]
- MIC MH 6357 (Mannheimia haemolytica): 0.8 µM (≈ 0.364 µg/mL)
- MIC MH 6374 (Mannheimia haemolytica): 0.8 µM (≈ 0.364 µg/mL)
- MIC MH 10720 (Mannheimia haemolytica): 0.2 µM (≈ 0.0909 µg/mL)
- MIC MH 12587 (Mannheimia haemolytica): 3.1 µM (≈ 1.41 µg/mL)
- MIC MH 13093 (Mannheimia haemolytica): 1.6 µM (≈ 0.727 µg/mL)
- MIC PM 6267 (Pasteurella multocida): ≤0.1 µM
- MIC PM 6391 (Pasteurella multocida): >100 µM
- MIC PM 10775 (Pasteurella multocida): ≤0.1 µM
- MIC PM 12080 (Pasteurella multocida): 0.8 µM (≈ 0.364 µg/mL)

Compound: C[C@@H](O)[C@H](Nc1nsc2cc(C#Cc3ccc(CN4CCOCC4)cc3)ccc12)C(=O)NO [Compound 13]
- MIC MH 6357 (Mannheimia haemolytica): 3.1 µM (≈ 1.45 µg/mL)
- MIC MH 6374 (Mannheimia haemolytica): 6.3 µM (≈ 2.94 µg/mL)
- MIC MH 10720 (Mannheimia haemolytica): 1.6 µM (≈ 0.747 µg/mL)
- MIC MH 12587 (Mannheimia haemolytica): 6.3 µM (≈ 2.94 µg/mL)
- MIC MH 13093 (Mannheimia haemolytica): 3.1 µM (≈ 1.45 µg/mL)
- MIC PM 6267 (Pasteurella multocida): ≤0.1 µM
- MIC PM 6391 (Pasteurella multocida): 100 µM (≈ 46.7 µg/mL)
- MIC PM 10775 (Pasteurella multocida): ≤0.1 µM
- MIC PM 12080 (Pasteurella multocida): 1.6 µM (≈ 0.747 µg/mL)

Compound: C[C@@H](O)[C@H](Nc1nsc2cc(C#Cc3ccc(CNCc4ccccc4)cc3)ccc12)C(=O)NO [Compound 14]
- MIC MH 6357 (Mannheimia haemolytica): 0.8 µM (≈ 0.389 µg/mL)
- MIC MH 6374 (Mannheimia haemolytica): 0.8 µM (≈ 0.389 µg/mL)
- MIC MH 10720 (Mannheimia haemolytica): ≤0.1 µM
- MIC MH 12587 (Mannheimia haemolytica): 1.6 µM (≈ 0.779 µg/mL)
- MIC MH 13093 (Mannheimia haemolytica): 0.8 µM (≈ 0.389 µg/mL)
- MIC PM 6267 (Pasteurella multocida): ≤0.1 µM
- MIC PM 6391 (Pasteurella multocida): 100 µM (≈ 48.7 µg/mL)
- MIC PM 10775 (Pasteurella multocida): ≤0.1 µM
- MIC PM 12080 (Pasteurella multocida): 0.2 µM (≈ 0.0973 µg/mL)

Compound: C[C@@H](O)[C@H](Nc1nsc2cc(C#Cc3ccc(CNCC(F)(F)F)cc3)ccc12)C(=O)NO [Compound 15]
- MIC MH 6357 (Mannheimia haemolytica): 1.6 µM (≈ 0.766 µg/mL)
- MIC MH 6374 (Mannheimia haemolytica): 1.6 µM (≈ 0.766 µg/mL)
- MIC MH 10720 (Mannheimia haemolytica): ≤0.1 µM
- MIC MH 12587 (Mannheimia haemolytica): 3.1 µM (≈ 1.48 µg/mL)
- MIC MH 13093 (Mannheimia haemolytica): 1.6 µM (≈ 0.766 µg/mL)
- MIC PM 6267 (Pasteurella multocida): ≤0.1 µM
- MIC PM 6391 (Pasteurella multocida): >100 µM
- MIC PM 10775 (Pasteurella multocida): ≤0.1 µM
- MIC PM 12080 (Pasteurella multocida): 0.4 µM (≈ 0.191 µg/mL)
